Experimental data from ChEMBL document CHEMBL1201862, “PubChem BioAssay data set” (2004).
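Compound exposure: 48 hours, 5 concentrations, 96-well plates. At the GI50, growth is halved.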 The source made the active and inactive calls. No stated cut-off is given here; in the data, active = GI50 up to about 1.1 µM and inactive = higher.

Tests used:
Test in all cases: DTP human tumour cell line panel, 48 h
K562 = tested on: K562
MOLT-4 = tested on: MOLT-4
IGROV-1 = tested on: IGROV-1
HL-60 = tested on: HL-60
Malme-3M = tested on: Malme-3M
M14 = tested on: M14
SF-268 = tested on: SF-268
U-251 = tested on: U-251
HOP-62 = tested on: HOP-62
UACC-62 = tested on: UACC-62
HCC 2998 = tested on: HCC 2998
ACHN = tested on: ACHN
786-0 = tested on: 786-0
CCRF-CEM = tested on: CCRF-CEM
RXF 393 = tested on: RXF 393
KM12 = tested on: KM12
NCI-H226 = tested on: NCI-H226
PC-3 = tested on: PC-3
LOX IMVI = tested on: LOX IMVI
HCT-116 = tested on: HCT-116
T47D = tested on: T47D
A549 = tested on: A549
SNB-19 = tested on: SNB-19
CAKI-1 = tested on: CAKI-1
OVCAR-3 = tested on: OVCAR-3
MDA-MB-231 = tested on: MDA-MB-231
NCI-H23 = tested on: NCI-H23
UO-31 = tested on: UO-31
SK-MEL-5 = tested on: SK-MEL-5
MDA-N = tested on: MDA-N
HCT-15 = tested on: HCT-15
UACC-257 = tested on: UACC-257
OVCAR-5 = tested on: OVCAR-5
HT-29 = tested on: HT-29
SW-620 = tested on: SW-620
A498 = tested on: A498
SF-295 = tested on: SF-295
NCI-H522 = tested on: NCI-H522
COLO 205 = tested on: COLO 205
MCF7 = tested on: MCF7
DU-145 = tested on: DU-145
SN12C = tested on: SN12C
TK-10 = tested on: TK-10
RPMI-8226 = tested on: RPMI-8226
SR = tested on: SR
EKVX = tested on: EKVX
NCI/ADR-RES = tested on: NCI/ADR-RES
NCI-H460 = tested on: NCI-H460
OVCAR-4 = tested on: OVCAR-4
MDA-MB-435 = tested on: MDA-MB-435
SF-539 = tested on: SF-539
SK-MEL-2 = tested on: SK-MEL-2
OVCAR-8 = tested on: OVCAR-8
SNB-75 = tested on: SNB-75
SK-MEL-28 = tested on: SK-MEL-28
SK-OV-3 = tested on: SK-OV-3
Hs-578T = tested on: Hs-578T
HOP-92 = tested on: HOP-92

Measured: GI50

O=C1OCC(CN2CCC(n3c(=O)[nH]c4ccccc43)CC2)=C1c1ccccc1
23 µM: HCT-15
inactive: K562 14.9 µM | MOLT-4 22 µM | IGROV-1 22.2 µM | HL-60 15.5 µM | Malme-3M 22.8 µM | M14 18.3 µM | SF-268 28.1 µM | U-251 35.5 µM | HOP-62 28.5 µM | UACC-62 12.6 µM | HCC 2998 23.8 µM | ACHN 29.4 µM | 786-0 33.4 µM | CCRF-CEM 13.7 µM | RXF 393 34.8 µM | KM12 16.3 µM | NCI-H226 25.4 µM | PC-3 19 µM | LOX IMVI 21.4 µM | HCT-116 25.5 µM | T47D 6.03 µM | A549 30.1 µM | SNB-19 26.1 µM | CAKI-1 22.9 µM | OVCAR-3 24.7 µM | MDA-MB-231 26.4 µM | NCI-H23 21.2 µM | UO-31 11.5 µM | SK-MEL-5 15.3 µM | MDA-N 26.2 µM | UACC-257 23.4 µM | OVCAR-5 41 µM | HT-29 19.7 µM | SW-620 34.9 µM | A498 23.5 µM | SF-295 26.4 µM | NCI-H522 19.2 µM | COLO 205 14.6 µM | MCF7 28.2 µM | DU-145 24.8 µM | SN12C 22 µM | TK-10 28.1 µM | RPMI-8226 28.8 µM | SR 30.2 µM | EKVX 25.9 µM | NCI/ADR-RES 22.5 µM | NCI-H460 6.78 µM | OVCAR-4 18.7 µM | MDA-MB-435 25.3 µM | SF-539 18.9 µM | SK-MEL-2 19.8 µM | OVCAR-8 17.1 µM | SNB-75 28.2 µM | SK-MEL-28 23.4 µM | SK-OV-3 37.2 µM | Hs-578T 30 µM

CC1(C)C(C#N)=[N+]([O-])C(C)(C)N1O
inactive: K562 > 100 µM | MOLT-4 35.5 µM | IGROV-1 > 100 µM | HL-60 26.7 µM | Malme-3M > 100 µM | M14 > 100 µM | SF-268 > 100 µM | U-251 > 100 µM | HOP-62 > 100 µM | UACC-62 > 100 µM | HCC 2998 > 100 µM | ACHN > 100 µM | 786-0 > 100 µM | CCRF-CEM 33.5 µM | RXF 393 > 100 µM | KM12 > 100 µM | NCI-H226 > 100 µM | PC-3 > 100 µM | LOX IMVI 77.3 µM | HCT-116 > 100 µM | T47D > 100 µM | A549 > 100 µM | SNB-19 > 100 µM | CAKI-1 > 100 µM | OVCAR-3 > 100 µM | MDA-MB-231 > 100 µM | NCI-H23 > 100 µM | UO-31 > 100 µM | SK-MEL-5 34.6 µM | MDA-N 65.8 µM | UACC-257 > 100 µM | OVCAR-5 > 100 µM | HT-29 > 100 µM | SW-620 72.3 µM | SF-295 > 100 µM | COLO 205 > 100 µM | MCF7 79.4 µM | DU-145 > 100 µM | SN12C > 100 µM | TK-10 > 100 µM | RPMI-8226 > 100 µM | SR > 100 µM | EKVX > 100 µM | NCI/ADR-RES > 100 µM | NCI-H460 > 100 µM | OVCAR-4 > 100 µM | MDA-MB-435 37.7 µM | SF-539 > 100 µM | SK-MEL-2 > 100 µM | OVCAR-8 > 100 µM | SNB-75 > 100 µM | SK-MEL-28 > 100 µM | HOP-92 > 100 µM | SK-OV-3 > 100 µM | Hs-578T > 100 µM
> 100 µM: HCT-15

N[C@H]1CCC[C@@H](O)C1O (some centres not stated)
inactive: K562 > 100 µM | HL-60 > 100 µM | M14 > 100 µM | SF-268 > 100 µM | U-251 > 100 µM | HOP-62 > 100 µM | UACC-62 > 100 µM | HCC 2998 > 100 µM | ACHN > 100 µM | 786-0 > 100 µM | KM12 > 100 µM | PC-3 > 100 µM | LOX IMVI > 100 µM | HCT-116 > 100 µM | T47D > 100 µM | A549 > 100 µM | CAKI-1 > 100 µM | OVCAR-3 > 100 µM | MDA-MB-231 > 100 µM | NCI-H23 > 100 µM | SK-MEL-5 > 100 µM | MDA-N > 100 µM | UACC-257 > 100 µM | OVCAR-5 > 100 µM | HT-29 > 100 µM | SW-620 > 100 µM | A498 > 100 µM | SF-295 > 100 µM | MCF7 > 100 µM | DU-145 > 100 µM | SN12C > 100 µM | RPMI-8226 > 100 µM | SR > 100 µM | EKVX > 100 µM | NCI/ADR-RES > 100 µM | NCI-H460 > 100 µM | MDA-MB-435 > 100 µM | SK-MEL-2 > 100 µM | OVCAR-8 > 100 µM | SNB-75 > 100 µM | SK-MEL-28 > 100 µM | SK-OV-3 > 100 µM | Hs-578T > 100 µM
> 100 µM: HCT-15
